Results: US20030181436A1, “Treatment for AIDS, HIV, and other related diseases and compounds for use therewith” (priority 2001, published 2003)

Key:
HIV = assay: PBMC time of addition assay; assay type: cell-based
Excerpt: FIGS. 18 and 19 show the results of the time of addition assay with the K and Z compound. In time of addition assays the timed addition of compounds after initial infection allows the identification of specific stages of virus replication. This is seen with the positive control compound AZT. AZT is a reverse transcriptase inhibitor. […] Thus it has an antiviral target that is occurring after completion of reverse transcription. […] In general since this time of addition uses multiple rounds of infection in the PBMCs versus a single round in cell lines systems, lower concentrations of compound will often shift the curve to the left. This is seen in FIG. 18.

[1] = test system: SK-1 strain of HIV in CEM-SS cells; assay: Chronically infected CEM/SK-1 cell assay, RT values; assay type: cell-based
Experimental: Reverse transcriptase activity was measured in cell-free supernatants. Tritiated thymidine triphosphate (NEN) (TTP) was resuspended in distilled H2O at 5 Ci/mL. Poly rA and oligo dT were prepared as a stock solution which was kept at −20° C. The RT reaction buffer was prepared fresh on a daily basis and consists of 125 μL 1.0 M EGTA, 125 μL dH2O, 110 μL 10% SDS, 50 μL 1.0 M Tris (pH 7.4), 50 μL, 1.0 M DTT, and 40 μL 1.0 M MgCl2. These three solutions were mixed together in a ratio of 2 parts TTP, 1 part poly rA:oligo dT, and 1 part reaction buffer. Ten microliters of this reaction mixture was placed in a round bottom microtiter plate and 15 μL of virus containing supernatant was added and mixed. The plate was incubated at 37° C. in a water bath with a solid support to prevent submersion of the plate and incubated for 60 minutes. Following reaction, the reaction volume was spotted onto pieces of DE81 paper, washed 5 times for 5 minutes each in a 5% sodium phosphate buffer, 2 times for 1 minute each in distilled water, 2 times for 1 minute each in 70% ethanol, and then dried. Opti-Fluor O was added to each sample and incorporated radioactivity was quantitated utilizing a Wallac 1450 Microbetaplus liquid scintillation counter.
The chronically infected CEM cells were cultured and the assay performed in RPMI 1640 supplemental with 10% Fetal Bovine Serum (heat inactivated), 2 mM L-glutamine, 100 U/mL penicillin, […] and 10 ug/mL gentamycin. On day 3 cell-free supernatants were collected and cell viability measured by MTS dye reduction. (See Table 13 and FIG. 20).

Substance	suppression of virus replication (HIV; 6.4 μg/ml, added at 4 h)	suppression of virus replication (HIV; 6.4 μg/ml, added at 9 h)	suppression of virus replication (HIV; 64 μg/ml, added 49 h post infection)	suppression of virus replication (HIV; 64 μg/ml, added at 4 h)	suppression of virus replication (HIV; 64 μg/ml, added at 9 h)	% VC ([1]; 0.625 μG/Ml)	RT VALUES (cpm) MEAN ([1]; 0.625 μG/Ml)	% VC ([1]; 2 μG/Ml)	RT VALUES (cpm) MEAN ([1]; 2 μG/Ml)	% VC ([1]; 6.25 μG/Ml)	RT VALUES (cpm) MEAN ([1]; 6.25 μG/Ml)	% VC ([1]; 20 μG/Ml)	RT VALUES (cpm) MEAN ([1]; 20 μG/Ml)	% VC ([1]; 62.5 μG/Ml)	RT VALUES (cpm) MEAN ([1]; 62.5 μG/Ml)	% VC ([1]; 200 μG/Ml)	RT VALUES (cpm) MEAN ([1]; 200 μG/Ml)	IC50 ([1]; CEMSK1 chronic infection)
Potassium Iodiscorbate [Compound K]	no inhibition	71%	75%	35%	87%													
Zinc Iodiscorbate [Compound Z]						95.1%	9997.0 cpm	96.8%	10178.7 cpm	16.8%	1761.0 cpm	1.2%	128.0 cpm	1.0%	104.0 cpm	0.5%	48.0 cpm	IC50 (μG/Ml) = 4.49
